The structures appear in SMILES notation.

This is an account of results in patent US8680159B2, “Bradykinin 1 receptor modulating compounds” (Gruenenthal GmbH, priority 2010, dated 2014).

The target of test [1] is T1, human B1R receptor (CHO K1 cells stably transfected with the human B1R gene) (Homo sapiens, UniProt P46663).
T1 construct: expressed in transfected cells; host or cells: CHO K1 cells (Chinese hamster ovary), stably transfected
T1 sequence (P46663 1-353): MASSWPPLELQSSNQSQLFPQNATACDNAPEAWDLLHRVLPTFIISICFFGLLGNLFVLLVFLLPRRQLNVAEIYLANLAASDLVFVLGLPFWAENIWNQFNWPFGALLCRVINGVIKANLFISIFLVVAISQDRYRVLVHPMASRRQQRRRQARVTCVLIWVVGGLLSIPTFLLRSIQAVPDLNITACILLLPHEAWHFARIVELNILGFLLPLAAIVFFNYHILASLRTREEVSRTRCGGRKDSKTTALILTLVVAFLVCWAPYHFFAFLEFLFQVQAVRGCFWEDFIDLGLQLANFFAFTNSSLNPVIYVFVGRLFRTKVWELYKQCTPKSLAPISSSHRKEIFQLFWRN
The test can be described thus: Functional study on the bradykinin receptor 1 (B1R), Ca2+ fluorescence (Fluo-4) FLIPR/Novostar assay, hB1R cells. Type of test: cell-based. Conditions: CHO-K1, read-out: % Inhibition (h-B1R) at 10 μM. In outline: (§1)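 Ca2+ influx (Fluo-4, peak fluorescence, λex 488/λem 540 nm) was measured in CHO K1 lines expressing rat or human B1R. After a 10 μM test-compound pre-addition scoring % activation, cells received EC80 agonist: Des-Arg9-bradykinin for rat, Lys-Des-Arg9-bradykinin for human. Antagonism was expressed as % of maximum inhibition, with IC50 from varied concentrations.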

The target in test [2] is T2, B1R receptor of the rat (CHO K1 cells stably transfected with the B1R gene of the rat) (Rattus norvegicus, UniProt P97583).
T2 construct: expressed in transfected cells; host or cells: CHO K1 cells (Chinese hamster ovary), stably transfected
T2 sequence (P97583 1-337): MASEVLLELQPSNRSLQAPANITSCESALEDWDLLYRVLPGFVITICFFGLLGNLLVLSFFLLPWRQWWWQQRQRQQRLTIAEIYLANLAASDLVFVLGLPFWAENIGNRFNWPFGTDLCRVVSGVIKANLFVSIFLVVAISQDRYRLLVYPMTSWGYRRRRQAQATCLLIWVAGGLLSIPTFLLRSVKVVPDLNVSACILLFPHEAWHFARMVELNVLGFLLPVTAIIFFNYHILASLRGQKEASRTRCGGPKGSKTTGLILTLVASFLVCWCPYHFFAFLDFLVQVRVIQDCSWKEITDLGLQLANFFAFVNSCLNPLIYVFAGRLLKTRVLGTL
The test can be described thus: Functional study on the bradykinin receptor 1 (B1R), Ca2+ fluorescence (Fluo-4) FLIPR/Novostar assay, rB1R cells. Type of test: cell-based. The note with it: for inhibition at 10 µM: CHO-K1, 10 μM, read-out: % Inhibition (r-B1R) at 10 μM. In outline:
as §1

One may read the inhibition as the drop in the measured response relative to a control, in per cent. Turning to `CN(C(=O)c1ccc2c(c1)C(NC(=O)c1sccc1Cl)CC2)C1CCN(c2ccncc2)CC1` (stereo not drawn) [CC_H-29, 3-Chloro-N-[6-[methyl-(1-pyridin-4-yl-piperidin-4-yl)-carbamoyl]-2,3-dihydro-1H-inden-1-yl]-thiophene-2-carboxylic acid amide], the results for the inhibition at 10 µM in test [1] and in test [2] were 99% and 103%, respectively.

Regarding `CN(C(=O)c1ccc2c(c1)C(N(C)C(=O)c1sccc1Cl)CC2)C1CCN(c2ccncc2)CC1` (stereo not drawn) [CC_H-30, 3-Chloro-N-methyl-N-[6-[methyl-(1-pyridin-4-yl-piperidin-4-yl)-carbamoyl]-2,3-dihydro-1H-inden-1-yl]-thiophene-2-carboxylic acid amide], the values for the inhibition at 10 µM in test [1] and in test [2] were 99% and 104%, respectively.

Consider `CN(C(=O)c1ccc2c(c1)C(N(C)C(=O)c1cnccc1C(F)(F)F)CC2)C1CCN(c2ccncc2)CC1` (stereo not drawn) [CC_H-32, N-Methyl-N-[6-[methyl-(1-pyridin-4-yl-piperidin-4-yl)-carbamoyl]-2,3-dihydro-1H-inden-1-yl]-4-(trifluoromethyl)-pyridine-3-carboxylic acid amide], for which the inhibition at 10 µM in test [1] was 97%; in test [2], 105%.

For `CN(C(=O)c1ccc2c(c1)C(NC(=O)c1ccccc1Cl)CCO2)C1CCN(c2ccncc2)CC1` (stereo not drawn) [CC_H-33, 4-[(2-Chloro-benzoyl)amino]-N-methyl-N-(1-pyridin-4-yl-piperidin-4-yl)-3,4-dihydro-2H-chromene-6-carboxylic acid amide], the inhibition at 10 µM was determined as 98% in test [1] and 104% in test [2].

On to `O=C(NCCC1CCN(c2ccncc2)CC1)c1ccc2c(c1)C(NC(=O)c1ccccc1Cl)CC2` (stereo not drawn) [CC_H-34, 3-[(2-Chloro-benzoyl)amino]-N-[2-(1-pyridin-4-yl-piperidin-4-yl)-ethyl]-2,3-dihydro-1H-indene-5-carboxylic acid amide], for which the inhibition at 10 µM in test [1] was 99%; in test [2], 104%.

Turning to `CN(C(=O)c1ccc2c(c1)C(NC(=O)c1cccc(Cl)c1Cl)CCO2)C1CCN(c2ccncc2)CC1` (stereo not drawn) [CC_H-35, 4-[(2,3-Dichloro-benzoyl)amino]-N-methyl-N-[1-pyridin-4-yl-piperidin-4-yl]-3,4-dihydro-2H-chromene-6-carboxylic acid amide], the inhibition at 10 µM in test [1] amounted to 97%; in test [2] it was 104%.

Regarding `O=C(NCCC1CCN(c2ccncc2)CC1)c1ccc2c(c1)C(NC(=O)c1cc(F)ccc1Cl)CC2` (stereo not drawn) [CC_H-36, 3-[(2-Chloro-5-fluoro-benzoyl)amino]-N-[2-(1-pyridin-4-yl-piperidin-4-yl)-ethyl]-2,3-dihydro-1H-indene-5-carboxylic acid amide], the figures for the inhibition at 10 µM in test [1] and in test [2] were 99% and 104%, respectively.

On to `O=C(NCCC1CCN(c2ccncc2)CC1)c1ccc2c(c1)C(NC(=O)c1cnccc1C(F)(F)F)CC2` (stereo not drawn) [CC_H-37, N-[6-[2-(1-Pyridin-4-yl-piperidin-4-yl)-ethyl-carbamoyl]-2,3-dihydro-1H-inden-1-yl]-4-(trifluoromethyl)-pyridine-3-carboxylic acid amide], for which the inhibition at 10 µM in test [1] amounted to 93%; in test [2] it was 104%.

Regarding `CN(C(=O)c1ccc2c(c1)C(NC(=O)C1CCCCC1)CCO2)C1CCN(c2ccncc2)CC1` (stereo not drawn) [CC_H-38, 4-(Cyclohexanecarbonylamino)-N-methyl-N-(1-pyridin-4-yl-piperidin-4-yl)-3,4-dihydro-2H-chromene-6-carboxylic acid amide], the inhibition at 10 µM in test [1] stood at 99%; in test [2], 104%.

For `CC(C)CC(=O)NC1CCOc2ccc(C(=O)N(C)C3CCN(c4ccncc4)CC3)cc21` (stereo not drawn) [CC_H-39, N-Methyl-4-(3-methyl-butanoylamino)-N-(1-pyridin-4-yl-piperidin-4-yl)-3,4-dihydro-2H-chromene-6-carboxylic acid amide], in test [1], the inhibition at 10 µM is 99%. The “% Inhibition (r-B1R) at 10 μM” value in test [2] (10 μM) is on record as 104%.

Take `CN(C(=O)c1ccc2c(c1)C(NC(=O)c1sccc1Cl)CCO2)C1CCN(c2ccncc2)CC1` (stereo not drawn) [CC_H-40, 4-[(3-Chloro-thiophene-2-carbonyl)amino]-N-methyl-N-(1-pyridin-4-yl-piperidin-4-yl)-3,4-dihydro-2H-chromene-6-carboxylic acid amide]: the inhibition at 10 µM came out at 95% in test [1] and 100% in test [2].

As for `CC(C)CC(=O)NC1CCc2ccc(C(=O)N(C)C3CCN(c4ccncc4)CC3)cc21` (stereo not drawn) [CC_H-41, N-Methyl-3-(3-methyl-butanoylamino)-N-(1-pyridin-4-yl-piperidin-4-yl)-2,3-dihydro-1H-indene-5-carboxylic acid amide], the values for the inhibition at 10 µM in test [1] and in test [2] were 100% and 104%, respectively.

In the case of `CN(C(=O)c1ccc2c(c1)C(NC(=O)c1cnccc1C(F)(F)F)CCO2)C1CCN(c2ccncc2)CC1` (stereo not drawn) [CC_H-42, N-[6-[Methyl-(1-pyridin-4-yl-piperidin-4-yl)-carbamoyl]-3,4-dihydro-2H-chromen-4-yl]-4-(trifluoromethyl)-pyridine-3-carboxylic acid amide], the inhibition at 10 µM came to 99% in test [1] and 104% in test [2].

Turning to `CC(C)CC(=O)NC1CC(C)(C)c2ccc(C(=O)N(C)C3CCN(c4ccncc4)CC3)cc21` (stereo not drawn) [CC_H-43, N,1,1-Trimethyl-3-(3-methyl-butanoylamino)-N-(1-pyridin-4-yl-piperidin-4-yl)-2,3-dihydro-indene-5-carboxylic acid amide], the inhibition at 10 µM in test [1] was found to be 100%; in test [2] it was 105%.

Consider `CN(C(=O)NC1CCc2ccc(C(=O)N(C)C3CCN(c4ccncc4)CC3)cc21)c1ccccc1Cl` (stereo not drawn) [CC_H-44, 3-[[(2-Chlorophenyl)-methyl-carbamoyl]amino]-N-methyl-N-(1-pyridin-4-yl-piperidin-4-yl)-2,3-dihydro-1H-indene-5-carboxylic acid amide], for which the inhibition at 10 µM in test [1] turned out to be 100%; in test [2], 104%.

In the case of `CN(C(=O)c1ccc2c(c1)C(N(C)C(=O)c1cncnc1)CC2)C1CCN(c2ccncc2)CC1` (stereo not drawn) [CC_H-45, N-Methyl-N-[6-[methyl-(1-pyridin-4-yl-piperidin-4-yl)-carbamoyl]-2,3-dihydro-1H-inden-1-yl]-pyrimidine-5-carboxylic acid amide], the values for the inhibition at 10 µM in test [1] and in test [2] were 96% and 88%, respectively.

Regarding `CN(C(=O)c1ccc2c(c1)C(N(C)S(=O)(=O)Cc1ccccc1C(F)(F)F)CC2)C1CCN(c2ccncc2)CC1` (stereo not drawn) [CC_H-46, N-Methyl-3-[methyl-[[2-(trifluoromethyl)-phenyl]-methylsulfonyl]-amino]-N-(1-pyridin-4-yl-piperidin-4-yl)-2,3-dihydro-1H-indene-5-carboxylic acid amide], the inhibition at 10 µM worked out at 99% in test [1] and 104% in test [2].

`CN(C(=O)c1ccc2c(c1)C(NS(=O)(=O)c1c(Cl)cccc1C(F)(F)F)CCO2)C1CCN(c2ccncc2)CC1` (stereo not drawn) [CC_H-47, 4-[[[2-Chloro-6-(trifluoromethyl)-phenyl]sulfonyl]amino]-N-methyl-N-(1-pyridin-4-yl-piperidin-4-yl)-3,4-dihydro-2H-chromene-6-carboxylic acid amide]: the inhibition at 10 µM in test [1] turned out to be 99%; in test [2], 104%.

As for `CN(C(=O)c1ccc2c(c1)C(NC(=O)c1cncnc1)CC2)C1CCN(c2ccncc2)CC1` (stereo not drawn) [CC_H-48, N-[6-[Methyl-(1-pyridin-4-yl-piperidin-4-yl)-carbamoyl]-2,3-dihydro-1H-inden-1-yl]-pyrimidine-5-carboxylic acid amide], the figures for the inhibition at 10 µM in test [1] and in test [2] were 96% and 78%, respectively.

Consider `CN(C(=O)c1ccc2c(c1)C(NC(=O)CCC1CCCC1)CCO2)C1CCN(c2ccncc2)CC1` (stereo not drawn) [CC_H-49, 4-(3-Cyclopentyl-propanoylamino)-N-methyl-N-(1-pyridin-4-yl-piperidin-4-yl)-3,4-dihydro-2H-chromene-6-carboxylic acid amide], for which the inhibition at 10 µM in test [1] came out at 99%; in test [2], 102%.

Regarding `O=C(NCCC1CCN(c2ccncc2)CC1)c1ccc2c(c1)C(NS(=O)(=O)c1c(Cl)cccc1C(F)(F)F)CC2` (stereo not drawn) [CC_H-50, 3-[[[2-Chloro-6-(trifluoromethyl)-phenyl]sulfonyl]amino]-N-[2-(1-pyridin-4-yl-piperidin-4-yl)-ethyl]-2,3-dihydro-1H-indene-5-carboxylic acid amide], the inhibition at 10 µM in test [1] stood at 100%; in test [2] it was 101%.
